Source: patent US8754094B2, “Methods for heat shock protein dependent cancer treatment” (The Research Foundation of State University of New York, priority 2007, dated 2014)
“Also recorded” adds a separate entry of the source. Read-outs that look alike come from different tables or passages of the source.

Columns and labels:
[1] = tested on: NCI-H929; assay: cells
Method: For cell survival assays, cells were plated in 96-well culture plates (BD Biosciences, San Jose, Calif.), 100,000 cells/well with 200 μl, of culture media. The effect of the drugs on cell survival was assessed, for example, by measuring 3-(4,5-dimethylthiazol-2-yl)-5-(3-carboxymethoxyphenyl)-2-(4-sulphophenyl)-2H-tetrazolium, inner salt (MTS) (Promega, Madison, Wis.) dye absorbance of viable cells by adding 40 μL of 5 mg/mL MTS to each well for the last 4 hours of drug exposure. Additional wells containing cells only (untreated control) or medium only (background medium control) were used as controls. Absorbance at 490 nm (A490) was measured using a spectrophotometer (Dynatech Laboratories, Chantilly, Va.). Viability was estimated according to the following formula: […]
Briefly, the cellular fraction affected (Fa) was calculated based on an MTS assay after exposing cells to the drugs alone or in combination at a given dose compared to untreated cells, using the formula: Fa=100−% Viable Cells. Fa values were entered into Calcusyn software (Biosoft, Ferguson, Mo. and Cambridge, United Kingdom) to obtain CI values. CI values <1.0 indicated a synergistic effect of the drugs used in combination. For Inhibitory Concentration, or IC, calculations, dose-effect curves for MAL3-101, MG-132, 17-AAG, and their combinations were used to interpolate the median inhibitory concentration that caused 30% (IC30), 50% (IC50), and 70% (IC70) reductions in the % viable cells compared to untreated cells.
Cells (1×10^5) were plated in 96-well microtiter plates (Costar, Cambridge, Mass.) in 100 μL, of growth medium and exposed for indicated periods to various concentrations of compounds or their combinations. Control cells were cultured in DMSO. All studies were performed in triplicate and repeated at least three times independently. Survival was measured by an MTS assay (Promega, Madison, Wis.) as per the manufacturer's directions. The absorbance (A450) ratio of treated to untreated cells, after the subtraction of background absorbance, was multiplied by 100 to obtain percent cell survival. Cell death was measured by trypan blue dye exclusion in identically plated cultures.
DMSO-treated cultures were compared to drug-treated cultures by Student's t tests or by Dunnett's post-hoc test following significant repeated-measures one-way analysis of variance. All tests were two-tailed, and statistical significance was set at P≦0.05. Isobologram analysis was performed to derive combination index (CI) values based upon the Chou-Talalay method using CalcuSyn software (Biosoft, Ferguson, Mo. and Cambridge, United Kingdom) as described in L. Catley, E. Weisberg, T. Kiziltepe, Y. T. Tai, T. Hideshima, P. Neri, P. Tassone, P. Atadja, D. Chauhan, N. C. Munshi, K. C. Anderson, Aggresome induction by proteasome inhibitor Bortezomib and {alpha}-tubulin hyperacetylation by tubulin deacetylase (TDAC) inhibitor LBH589 are synergistic in myeloma cells, Blood (2006), which is incorporated herein by reference.

[2] = tested on: Hsp70; assay: Hsp70 modulation
[3] = tested on: XBP-1 mRNA splicing; assay: RT-PCR analysis of XBP-1 mRNA splicing (UPR) in NCI-H929; format: cell-based, human
Method: (§1) Total RNA was prepared from NCI-H929 and HEK293 cells using TRIzol reagent (Invitrogen, Carlsbad, Calif.) following exposure to MAL3-101, MG-132, and 17-AAG alone and in combination at the indicated time points. Tunicamycin was used at varying concentrations.
(§2) Total RNAs were used for the first-strand synthesis with the Superscript reverse transcriptase (Invitrogen, Carlsbad, Calif.). PCR primers (5′-[…]-3′ [Seq. ID No. 1] and 5′-[…]-3′ [Seq. ID No. 2]) encompassing the missing sequences in XPB-1s were used for the PCR amplification with AmpliTaq Gold polymerase (Applied Biosystem, Foster City, Calif.) with a probe set spanning the spliced-out region. PCR products were separated by electrophoresis on a 3% agarose gel (Agarose-1000, Invitrogen) and visualized them by ethidium bromide staining to assess the degree of X-box binding protein-1 unspliced (XBP-1u, ˜280 bp) and spliced (XBP-1s, ˜265 bp) mRNA.
Unspliced (XBP-1u, 285 bp) and spliced (XBP-1s, 259 bp) XBP-1 mRNA levels of treated NCI-H929 were determined by PCR amplification of total RNA that was reverse transcribed by SuperScript Reverse Transcriptase (Invitrogen, Carlsbad, Calif.). PCR primers (5′-[…]-3′ [Seq. ID No. 1] and 5′-[…]-3′ [Seq. ID No. 2]), which flank the 26-nt intron of XBP1 mRNA, were used for PCR amplification with Ex Taq polymerase (Takara Bio, Shiga, Japan).

[4] = tested on: XBP-1 splicing; assay: RT-PCR analysis of XBP-1 splicing in HEK293; format: cell-based; settings: HEK293, 6 hours
Method: as §1, §2

[5] = tested on: BiP; assay: Levels of ER lumenal chaperone BiP in NCI-H929; format: cell-based, human; settings: NCI-H929, data not shown

CC(C)(C)NC(=O)C(c1ccc(I)cc1)N(CCN1CCOCC1)C(=O)CCCNC(=O)c1ccccc1 (stereo not drawn) [MAL3-51]
response of percent viability ([1]; NCI-H929, 10 or 20 μM, 40 h, MTS): no response
potency as Hsp70 modulator relative to MAL3-101 [2]: less potent Hsp70 antagonist than MAL3-101; also recorded: substantially less potent Hsp70 modulator

tunicamycin [reference compound]
XBP-1 mRNA splicing, positive control ([3]; NCI-H929, 5 μg/ml, 4 h): induced XBP-1 mRNA splicing
XBP-1 splicing in HEK293 [4]: Stronger XBP-1 splicing was observed

C=CCNC1=C2C[C@@H](C)C[C@H](OC)[C@H](O)[C@@H](C)/C=C(\C)[C@H](OC(N)=O)[C@@H](OC)/C=C\C=C(/C)C(=O)NC(=CC1=O)C2=O [17-AAG, 17-allylamino-17-demethoxygeldanamycin]
IC50 ([1]; read-out: IC50 (reduction of % viable cells), single agent, NCI-H929, 40 h exposure, MTS assay, agent alone): 400 nM
IC50 ([1]; read-out: IC50 of 17-AAG in combination with 5 μM MAL3-101, NCI-H929, MTS, plus 5 μM MAL3-101): 300 nM
IC50 ([1]; read-out: IC50 of 17-AAG in combination with 10 μM MAL3-101, NCI-H929, 40 h, MTS, plus 10 μM MAL3-101): 30 nM
XBP-1 mRNA splicing at early time points ([3]; NCI-H929, early time points (4 h), concentrations that gave synergistic cytotoxicity): no XBP-1 mRNA splicing was observed
levels of BiP [5]: did not change
